Data: PubChem BioAssay (NCI)
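Five concentrations, 48 hours, 96-well plates. GI50 = concentration required for 50% inhibition of growth. TGI marks complete inhibition of growth.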

Columns and labels:
Experiment in all cases: NCI anticancer screen, dose series, 48 h
EKVX NSCLC = system: EKVX NSCLC
MDA-MB-468 breast = system: MDA-MB-468 breast
M14 melanoma = system: M14 melanoma
BT-549 breast = system: BT-549 breast
NCI-H226 lung = system: NCI-H226 lung
A549 NSCLC = system: A549 NSCLC
NCI-H460 lung = system: NCI-H460 lung
RXF 393 renal = system: RXF 393 renal
HCC-2998 colon = system: HCC-2998 colon
SK-OV-3 ovarian = system: SK-OV-3 ovarian
SK-MEL-2 melanoma = system: SK-MEL-2 melanoma
HOP-62 NSCLC = system: HOP-62 NSCLC
MDA-MB-435 = system: MDA-MB-435
MALME-3M melanoma = system: MALME-3M melanoma
NCI-H23 lung = system: NCI-H23 lung
HT29 colon = system: HT29 colon
SNB-19 CNS = system: SNB-19 CNS
UO-31 renal = system: UO-31 renal
RPMI-8226 leukemia = system: RPMI-8226 leukemia
SK-MEL-28 melanoma = system: SK-MEL-28 melanoma
MOLT-4 leukemia = system: MOLT-4 leukemia
COLO 205 colon = system: COLO 205 colon
UACC-62 melanoma = system: UACC-62 melanoma
SN12C renal = system: SN12C renal
CCRF-CEM leukemia = system: CCRF-CEM leukemia
MCF7 breast = system: MCF7 breast
HOP-92 NSCLC = system: HOP-92 NSCLC
MDA-MB-231 breast = system: MDA-MB-231 breast
SR leukemia = system: SR leukemia
HS 578T breast = system: HS 578T breast
SW-620 colon = system: SW-620 colon
HCT-15 colon = system: HCT-15 colon
TK-10 renal = system: TK-10 renal
IGROV1 ovarian = system: IGROV1 ovarian
KM12 colon = system: KM12 colon
NCI-H522 lung = system: NCI-H522 lung
SF-268 CNS = system: SF-268 CNS
CAKI-1 renal = system: CAKI-1 renal
DU-145 prostate = system: DU-145 prostate
HCT-116 colon = system: HCT-116 colon
U251 CNS = system: U251 CNS
SNB-75 CNS = system: SNB-75 CNS
K-562 leukemia = system: K-562 leukemia
SK-MEL-5 melanoma = system: SK-MEL-5 melanoma
OVCAR-4 ovarian = system: OVCAR-4 ovarian
UACC-257 melanoma = system: UACC-257 melanoma
OVCAR-5 ovarian = system: OVCAR-5 ovarian
OVCAR-3 ovarian = system: OVCAR-3 ovarian
SF-539 CNS = system: SF-539 CNS
SF-295 CNS = system: SF-295 CNS
PC-3 prostate = system: PC-3 prostate
786-0 renal = system: 786-0 renal
ACHN renal = system: ACHN renal
A498 renal = system: A498 renal
T-47D breast = system: T-47D breast
LOX IMVI melanoma = system: LOX IMVI melanoma
OVCAR-8 ovarian = system: OVCAR-8 ovarian

O=c1oc2ccc(-c3ccc(F)cc3F)cc2c(=O)n1-c1ccc(F)c(Cl)c1
GI50 (EKVX NSCLC): 3 µM
TGI (EKVX NSCLC): 21.3 µM
GI50 (MDA-MB-468 breast): 2.25 µM
TGI (MDA-MB-468 breast): 5.84 µM
GI50 (M14 melanoma): 3.28 µM
TGI (M14 melanoma): 11.1 µM
GI50 (BT-549 breast): 1.8 µM
TGI (BT-549 breast): 4.14 µM
GI50 (NCI-H226 lung): 1.98 µM
TGI (NCI-H226 lung): 7.01 µM
GI50 (A549 NSCLC): 2.87 µM
TGI (A549 NSCLC): 15 µM
GI50 (NCI-H460 lung): 2.93 µM
TGI (NCI-H460 lung): 9.93 µM
GI50 (RXF 393 renal): 1.77 µM
TGI (RXF 393 renal): 5.67 µM
GI50 (HCC-2998 colon): 3.42 µM
TGI (HCC-2998 colon): 12.4 µM
GI50 (SK-OV-3 ovarian): 2.41 µM
TGI (SK-OV-3 ovarian): 6.33 µM
GI50 (SK-MEL-2 melanoma): 2.09 µM
TGI (SK-MEL-2 melanoma): 4.56 µM
GI50 (HOP-62 NSCLC): 2.38 µM
TGI (HOP-62 NSCLC): 6.66 µM
GI50 (MDA-MB-435): 2.58 µM
TGI (MDA-MB-435): 7.95 µM
GI50 (MALME-3M melanoma): 2.03 µM
TGI (MALME-3M melanoma): 5.65 µM
GI50 (NCI-H23 lung): 2.21 µM
TGI (NCI-H23 lung): 6.45 µM
GI50 (HT29 colon): 9.51 µM
TGI (HT29 colon): 27.3 µM
GI50 (SNB-19 CNS): 3.79 µM
TGI (SNB-19 CNS): 23.8 µM
GI50 (UO-31 renal): 2.4 µM
TGI (UO-31 renal): 9.98 µM
GI50 (RPMI-8226 leukemia): 1.62 µM
TGI (RPMI-8226 leukemia): 6.62 µM
GI50 (SK-MEL-28 melanoma): 3.29 µM
TGI (SK-MEL-28 melanoma): 12.7 µM
GI50 (MOLT-4 leukemia): 3.83 µM
TGI (MOLT-4 leukemia): 45.1 µM
GI50 (COLO 205 colon): 12.3 µM
TGI (COLO 205 colon): 26.2 µM
GI50 (UACC-62 melanoma): 1.88 µM
TGI (UACC-62 melanoma): 5.01 µM
GI50 (SN12C renal): 2.16 µM
TGI (SN12C renal): 8.67 µM
GI50 (CCRF-CEM leukemia): 3.69 µM
TGI (CCRF-CEM leukemia): 35.4 µM
GI50 (MCF7 breast): 3.27 µM
TGI (MCF7 breast): 56.9 µM
GI50 (HOP-92 NSCLC): 0.808 µM
TGI (HOP-92 NSCLC): 4.78 µM
GI50 (MDA-MB-231 breast): 1.37 µM
TGI (MDA-MB-231 breast): 3.77 µM
GI50 (SR leukemia): 2.96 µM
TGI (SR leukemia): 20.5 µM
GI50 (HS 578T breast): 2.42 µM
TGI (HS 578T breast): 7.45 µM
GI50 (SW-620 colon): 3.43 µM
TGI (SW-620 colon): 13 µM
GI50 (HCT-15 colon): 3.17 µM
TGI (HCT-15 colon): 14.9 µM
GI50 (TK-10 renal): 3.11 µM
TGI (TK-10 renal): 9.19 µM
GI50 (IGROV1 ovarian): 3.49 µM
TGI (IGROV1 ovarian): 17.4 µM
GI50 (KM12 colon): 2.97 µM
TGI (KM12 colon): 9.62 µM
GI50 (NCI-H522 lung): 1.85 µM
TGI (NCI-H522 lung): 6.39 µM
GI50 (SF-268 CNS): 2.69 µM
TGI (SF-268 CNS): 11.6 µM
GI50 (CAKI-1 renal): 1.72 µM
TGI (CAKI-1 renal): 5.11 µM
GI50 (DU-145 prostate): 4.12 µM
TGI (DU-145 prostate): 25.3 µM
GI50 (HCT-116 colon): 3.01 µM
TGI (HCT-116 colon): 10.1 µM
GI50 (U251 CNS): 2.9 µM
TGI (U251 CNS): 11.7 µM
GI50 (SNB-75 CNS): 1.59 µM
TGI (SNB-75 CNS): 5.77 µM
GI50 (K-562 leukemia): 2.12 µM
TGI (K-562 leukemia): > 100 µM
GI50 (SK-MEL-5 melanoma): 1.46 µM
TGI (SK-MEL-5 melanoma): 3.03 µM
GI50 (OVCAR-4 ovarian): 3.24 µM
TGI (OVCAR-4 ovarian): 39.6 µM
GI50 (UACC-257 melanoma): 2.07 µM
TGI (UACC-257 melanoma): 6.51 µM
GI50 (OVCAR-5 ovarian): 3.68 µM
TGI (OVCAR-5 ovarian): 20.6 µM
GI50 (OVCAR-3 ovarian): 3.13 µM
TGI (OVCAR-3 ovarian): 11.9 µM
GI50 (SF-539 CNS): 3.16 µM
TGI (SF-539 CNS): 10.4 µM
GI50 (SF-295 CNS): 2.68 µM
TGI (SF-295 CNS): 7.72 µM
GI50 (PC-3 prostate): 3.18 µM
TGI (PC-3 prostate): 13.7 µM
GI50 (786-0 renal): 2.38 µM
TGI (786-0 renal): 7.2 µM
GI50 (ACHN renal): 3.06 µM
TGI (ACHN renal): 10.1 µM
GI50 (A498 renal): 2.25 µM
TGI (A498 renal): 6.36 µM
GI50 (T-47D breast): 2.28 µM
TGI (T-47D breast): 6.71 µM
GI50 (LOX IMVI melanoma): 3.69 µM
TGI (LOX IMVI melanoma): 12.2 µM
GI50 (OVCAR-8 ovarian): 3.55 µM
TGI (OVCAR-8 ovarian): 25.4 µM
